Test results taken from PubChem BioAssay (NCI).
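1) Cells in 96-well plates. 2) Compound, 48 h, 5 concentrations. 3) Linear interpolation between surrounding doses. 4) Unreached endpoint = highest concentration. Here, GI50 denotes the concentration required for 50% inhibition of growth. TGI is the concentration that stops growth completely.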

Legend:
Assay in all cases: NCI-60 cell line screen, 48 h
NCI-H23 lung = system: NCI-H23 lung
NCI-H460 lung = system: NCI-H460 lung
NCI-H522 lung = system: NCI-H522 lung
NCI/ADR-RES ovarian = system: NCI/ADR-RES ovarian
OVCAR-3 ovarian = system: OVCAR-3 ovarian
OVCAR-4 ovarian = system: OVCAR-4 ovarian
OVCAR-5 ovarian = system: OVCAR-5 ovarian
OVCAR-8 ovarian = system: OVCAR-8 ovarian
PC-3 prostate = system: PC-3 prostate
RPMI-8226 leukemia = system: RPMI-8226 leukemia
RXF 393 renal = system: RXF 393 renal
SF-268 CNS = system: SF-268 CNS
SF-295 CNS = system: SF-295 CNS
SF-539 CNS = system: SF-539 CNS
SK-MEL-2 melanoma = system: SK-MEL-2 melanoma
SK-MEL-28 melanoma = system: SK-MEL-28 melanoma
SK-MEL-5 melanoma = system: SK-MEL-5 melanoma
SK-OV-3 ovarian = system: SK-OV-3 ovarian
SN12C renal = system: SN12C renal
SNB-19 CNS = system: SNB-19 CNS
SNB-75 CNS = system: SNB-75 CNS
SR leukemia = system: SR leukemia
SW-620 colon = system: SW-620 colon
T-47D breast = system: T-47D breast
TK-10 renal = system: TK-10 renal
U251 CNS = system: U251 CNS
UACC-257 melanoma = system: UACC-257 melanoma
UACC-62 melanoma = system: UACC-62 melanoma
UO-31 renal = system: UO-31 renal

## CC/C=C\C[C@H](O)C/C=C1/C(=O)C=C[C@@H]1C/C=C\CCCC(=O)N(C)C
NCI-H23 lung
  TGI: 5.74 µM
NCI-H460 lung
  GI50: 2.37 µM
  TGI: 7.4 µM
NCI-H522 lung
  GI50: 1.33 µM
  TGI: 2.98 µM
NCI/ADR-RES ovarian
  GI50: 1.08 µM
  TGI: 7.9 µM
OVCAR-3 ovarian
  GI50: 0.471 µM
  TGI: 1.79 µM
OVCAR-4 ovarian
  GI50: 2.07 µM
  TGI: 13.5 µM
OVCAR-5 ovarian
  GI50: 2.46 µM
  TGI: 5.51 µM
OVCAR-8 ovarian
  GI50: 1.54 µM
  TGI: 11.4 µM
PC-3 prostate
  GI50: 1.78 µM
  TGI: 4.47 µM
RPMI-8226 leukemia
  GI50: 0.671 µM
  TGI: 6.01 µM
RXF 393 renal
  GI50: 1.73 µM
  TGI: 3.26 µM
SF-268 CNS
  GI50: 3.04 µM
  TGI: 13.9 µM
SF-295 CNS
  GI50: 2.97 µM
  TGI: 11.1 µM
SF-539 CNS
  GI50: 2.18 µM
  TGI: 7.14 µM
SK-MEL-2 melanoma
  GI50: 2.5 µM
  TGI: 7.13 µM
SK-MEL-28 melanoma
  GI50: 1.96 µM
  TGI: 4.31 µM
SK-MEL-5 melanoma
  GI50: 1.6 µM
  TGI: 3 µM
SK-OV-3 ovarian
  GI50: 4.36 µM
  TGI: 15.6 µM
SN12C renal
  GI50: 2.6 µM
  TGI: 10.9 µM
SNB-19 CNS
  GI50: 3.19 µM
  TGI: 14.1 µM
SNB-75 CNS
  GI50: 10.9 µM
  TGI: 33.4 µM
SR leukemia
  GI50: 0.376 µM
  TGI: 12.3 µM
SW-620 colon
  GI50: 0.851 µM
  TGI: 6.16 µM
T-47D breast
  GI50: 2.57 µM
  TGI: 11.8 µM
TK-10 renal
  GI50: 2.61 µM
  TGI: 7.48 µM
U251 CNS
  GI50: 1.32 µM
  TGI: 3.91 µM
UACC-257 melanoma
  GI50: 2.37 µM
  TGI: 7.31 µM
UACC-62 melanoma
  GI50: 2.2 µM
  TGI: 5.12 µM
UO-31 renal
  GI50: 1.41 µM
  TGI: 2.93 µM
